Test system: Pi-omega3Des
Format: cell-based, Phytophthora infestans
Conditions: FIG. 9; for desaturation of phospholipid-bound fatty acid (sn1 or sn2 position): fatty acids bound in phospholipids; for phospholipid converted by ω-3-desaturase: desaturation products also found in the neutral lipids

Row | Compound | desaturation of phospholipid-bound fatty acid (sn1 or sn2 position) | phospholipid converted by ω-3-desaturase
1 | CCCCC/C=C\C/C=C\C/C=C\CCCCCCC(=O)O [C20:3 ω-6-fatty acid, dihomo-γ-linolenic acid, reference compound] | does not differentiate between fatty acids bound at the sn1 or sn2 position | –
2 | CCCCC/C=C\C/C=C\C/C=C\C/C=C\CCCC(=O)O [arachidonic acid, reference compound] | desaturation of phospholipid-bound arachidonic acid to EPA | –
3 | phosphatidylcholine | – | converts
4 | phosphatidylethanolamine | – | converts
5 | phosphatidylinositol | – | converts

Reference: patent US9624477B2 (priority 2004, dated 2017)
